These results are taken from patent US20260085034A1, “N-(BENZHYDRYL)CYCLOALKYLCARBOXAMIDE DERIVATIVES AS INHIBITORS OF GLYCOGEN SYNTHASE 1 (GYS1) AND METHODS OF USE THEREOF” (Maze Therapeutics, Inc., priority 2022, published 2026).

Molecules are shown by their SMILES.

Assay [1] has as its target T1, recombinant hGYS1/GN1 protein (Homo sapiens, UniProt P13807).
T1 sequence (P13807 1-737): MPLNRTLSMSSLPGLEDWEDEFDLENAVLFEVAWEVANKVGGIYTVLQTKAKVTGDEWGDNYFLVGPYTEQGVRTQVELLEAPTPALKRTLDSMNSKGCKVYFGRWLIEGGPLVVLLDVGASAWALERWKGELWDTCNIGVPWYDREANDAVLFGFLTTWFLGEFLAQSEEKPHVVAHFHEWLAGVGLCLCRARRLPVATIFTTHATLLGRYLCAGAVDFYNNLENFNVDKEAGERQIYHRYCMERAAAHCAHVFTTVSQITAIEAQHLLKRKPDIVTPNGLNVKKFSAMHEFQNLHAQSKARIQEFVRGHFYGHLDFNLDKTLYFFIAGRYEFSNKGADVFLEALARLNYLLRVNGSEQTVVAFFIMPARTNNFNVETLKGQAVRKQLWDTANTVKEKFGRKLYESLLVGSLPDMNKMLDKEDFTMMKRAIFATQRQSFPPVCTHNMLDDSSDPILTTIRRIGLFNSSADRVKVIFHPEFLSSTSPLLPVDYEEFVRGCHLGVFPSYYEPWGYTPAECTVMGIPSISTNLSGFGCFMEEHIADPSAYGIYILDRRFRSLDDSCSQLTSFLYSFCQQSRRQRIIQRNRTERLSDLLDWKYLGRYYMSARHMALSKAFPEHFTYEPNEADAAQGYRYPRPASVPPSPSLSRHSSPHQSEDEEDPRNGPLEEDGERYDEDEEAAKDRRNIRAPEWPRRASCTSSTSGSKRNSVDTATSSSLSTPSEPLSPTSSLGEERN
T1 sequence (P46976 1-350 partner): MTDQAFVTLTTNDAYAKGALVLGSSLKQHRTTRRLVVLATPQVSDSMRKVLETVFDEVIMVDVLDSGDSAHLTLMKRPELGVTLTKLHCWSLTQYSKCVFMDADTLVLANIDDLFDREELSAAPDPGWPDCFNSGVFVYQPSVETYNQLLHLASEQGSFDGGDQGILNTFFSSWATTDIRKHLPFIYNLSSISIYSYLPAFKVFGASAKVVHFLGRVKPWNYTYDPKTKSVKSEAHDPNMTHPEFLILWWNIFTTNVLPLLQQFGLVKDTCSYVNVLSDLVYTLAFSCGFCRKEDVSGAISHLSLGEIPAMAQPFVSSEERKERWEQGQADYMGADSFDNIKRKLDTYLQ
Kind of assay: GYS1 coupled enzyme assay (PK/LDH). Format: biochemical. Particulars: geometric mean of at least 2 assay runs; NADH absorbance at 340 nm. An excerpt:
(§1) The GYS1 coupled enzyme assay is a kinetic biochemical assay that indirectly quantifies the rate of glycogen synthesis by coupling the conversion of GYS1 substrate UDP-glucose into UDP with downstream enzymatic reactions. UDP is released from UDP-glucose as glucose monomers are linked into the growing glycogen strand by GYS1. The coupled assay then proceeds with pyruvate kinase utilizing UDP and phospho(enol)pyruvate (PEP) to form pyruvate. Lactate dehydrogenase then converts pyruvate and NADH into lactate and NAD+. Oxidation of NADH to NAD+ can be measured continuously with a plate reader by quantifying the decrease in NADH absorbance at 340 nm over time.
Compounds that inhibit the hGYS1 enzyme and, subsequently, the downstream conversion of NADH to NAD+, were tested using assay ready plates (black, clear bottom 384 well plates) in a final DMSO reaction volume of 2.5% DMSO. The Assay Buffer contained 50 mM Tris pH 7.5, 2 mM MgCl2, and 100 mM KCl. Fresh stocks of BSA at a final concentration of 0.02% and TCEP at 1 mM were added before splitting buffer into hGYS1 buffer and substrate buffer. To the hGYS1 buffer, rabbit liver glycogen was added at a final concentration of 0.2% glycogen. Glucose-6-Phosphate was added at 1 mM, recombinant hGYS1/GN1 protein was added at 50 nM to the substrate buffer, phosphoenolpyruvate (PEP) was added at 2 mM, UDP-Glucose was added at 0.8 mM, NADH) was added at 0.6 mM, and Pyruvate Kinase/Lactate Dehydrogenase was added at 20 units/mL. The reaction was initiated by mixing hGYS1 buffer and substrate buffer at a 1:1 ratio. Both buffers were plated using a liquid dispensing device with hGYS1 buffer plated first followed by the substrate buffer. Plates were spun briefly to eliminate air bubbles and are immediately read in continuous mode at an absorbance of 340 nm, for 10 time points in one-minute increments, for a total of 10 minutes. The slope from these 10 time points was normalized to the positive and negative control wells. The duplicate % inhibition values are then averaged and fit to a Hill equation for dose response according to the Levenberg-Marquardt algorithm with the Hill equation maximum set to 100 and the minimum set to 0.
The results are shown in Table 3 below, which reports the IC50 of each compound. Unless otherwise specified, IC50 values are reported as the geometric mean of at least 2 assay runs on separate days. Each run represents the average of a technical replicate, where each compound was assayed twice in the same plate. As shown in the table below, the compounds of the present invention are potent inhibitors of human GYS1.

For assay [2], the target named is T2, recombinant hGYS2/GN1 protein (Homo sapiens, UniProt P54840).
T2 sequence (P54840 1-703): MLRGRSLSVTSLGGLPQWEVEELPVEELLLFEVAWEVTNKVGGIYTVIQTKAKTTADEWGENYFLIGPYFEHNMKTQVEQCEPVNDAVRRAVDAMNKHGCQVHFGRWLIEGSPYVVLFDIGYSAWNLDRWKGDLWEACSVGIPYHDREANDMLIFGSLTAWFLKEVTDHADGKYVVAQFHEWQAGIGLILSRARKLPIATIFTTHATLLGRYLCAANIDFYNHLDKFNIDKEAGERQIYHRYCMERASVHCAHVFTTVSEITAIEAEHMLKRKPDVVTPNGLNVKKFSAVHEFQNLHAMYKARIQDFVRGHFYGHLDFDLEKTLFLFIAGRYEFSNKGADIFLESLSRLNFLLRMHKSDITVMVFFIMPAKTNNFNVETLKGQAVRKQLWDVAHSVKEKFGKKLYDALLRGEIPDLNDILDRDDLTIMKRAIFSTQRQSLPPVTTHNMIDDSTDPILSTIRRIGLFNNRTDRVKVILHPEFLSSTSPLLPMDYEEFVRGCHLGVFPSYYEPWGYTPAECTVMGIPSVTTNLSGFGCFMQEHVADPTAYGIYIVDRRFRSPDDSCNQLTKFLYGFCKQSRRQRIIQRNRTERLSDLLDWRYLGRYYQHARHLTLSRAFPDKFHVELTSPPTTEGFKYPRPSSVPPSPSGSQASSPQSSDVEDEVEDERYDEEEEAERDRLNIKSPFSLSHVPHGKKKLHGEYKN
T2 sequence (P46976 1-350 partner): T1 sequence (P46976 1-350 partner)
Kind of assay: GYS2 coupled enzyme assay (PK/LDH). Conditions: geometric mean of at least 2 assay runs; NADH absorbance at 340 nm. Format: biochemical.
Description: as §1, with “GYS2” for “GYS1”, “GYS2.” for “GYS1.”
Compounds that inhibit the hGYS2 enzyme and, subsequently, the downstream conversion of NADH to NAD+, were tested using assay ready plates (black, clear bottom 384 well plates) in a final DMSO reaction volume of 2.5% DMSO. The Assay Buffer contained 50 mM Tris pH 7.5, 2 mM MgCl2, and 100 mM KCl. Fresh stocks of BSA at a final concentration of 0.02% and TCEP 1 mM were added before splitting buffer into hGYS2 buffer and substrate buffer. To the hGYS2 buffer, rabbit liver glycogen was added at a final concentration of 0.2% glycogen. Glucose-6-Phosphate was added at 2 mM, recombinant hGYS2/GN1 protein was added at 200 nM to the substrate buffer, phosphoenolpyruvate (PEP) was added at 2 mM, UDP-Glucose was added at 2 mM, NADH was added at 0.6 mM, and Pyruvate Kinase/Lactate Dehydrogenase was added at 20 units/mL. The reaction was initiated by mixing hGYS2 buffer and substrate buffer at a 1:1 ratio. Both buffers were plated using a liquid dispensing device with hGYS2 buffer plated first followed by the substrate buffer. Plates were spun briefly to eliminate air bubbles and are immediately read in continuous mode at an absorbance of 340 nm, for 10 time points in one-minute increments, for a total of 10 minutes. The slope from these 10 time points was normalized to the positive and negative control wells. The duplicate % inhibition values are then averaged and fit to a Hill equation for dose response according to the Levenberg-Marquardt algorithm with the Hill equation maximum set to 100 and the minimum set to 0.
The results are shown in Table 5 below, which reports the IC50 of each compound. Unless otherwise specified, IC50 values are reported as the geometric mean of at least 2 assay runs on separate days. As shown in the table below, the compounds of the present invention are not potent inhibitors of human GYS2. […] Each run represents the average of a technical replicate, where each compound was assayed twice in the same plate.

The IC50 is the concentration that inhibits the measured activity by half. As to `CC(C)c1ccc([C@@H](NC(=O)[C@H]2C[C@@H]2F)c2ccccc2NC(N)=O)cc1F` (single isomer, unassigned) [compound 10], the IC50 in assay [1] is 194 nM; in assay [2] it was > 100000 nM.
Regarding `CC(C)c1ccc([C@@H](NC(=O)C2CC2)c2cccc3[nH]c(=O)oc23)cc1` (single isomer, unassigned) [compound 15], the IC50 in assay [1] is 883 nM; in assay [2] it was > 100000 nM.
The corresponding values for `NC(=O)Nc1ccccc1[C@H](NC(=O)C1CC1)c1ccc(C2CCC2)cc1` (single isomer, unassigned) [compound 18] are 964 nM and > 100000 nM.
For `CC(C)c1ccc([C@@H](NC(=O)C2CC2)c2cccc3[nH]c(=O)[nH]c23)cc1` (single isomer, unassigned) [compound 29], the concentration for half-maximal inhibition (IC50) in assay [1] is 169 nM; in assay [2], > 100000 nM.
With `CNc1ccccc1[C@H](NC(=O)C1CC1)c1ccc(C(C)C)cc1` (single isomer, unassigned) [compound 39], the IC50 in assay [1] was 502 nM; in assay [2] it was > 100000 nM.
On to `CC(=O)Nc1ccc(F)cc1[C@H](NC(=O)C1CC1)c1ccc(C(C)C)cc1` (single isomer, unassigned) [compound 44], for which the half-inhibitory concentration (IC50) is 378 nM in assay [1] and > 100000 nM in assay [2].
`CC(C)c1ccc([C@@H](NC(=O)C2CC2)c2cccnc2N)cc1` (single isomer, unassigned) [compound 51]: the IC50 in assay [1] is 735 nM; in assay [2], > 100000 nM.
On the same counts, the results for `CC(C)c1ccc([C@@H](NC(=O)C2CC2)c2ccccc2)cc1F` (single isomer, unassigned) [compound 52] are 591 nM and > 100000 nM.
On to `CC(C)c1ccc([C@@H](NC(=O)C2CC2)c2ccccc2Cl)cc1` (single isomer, unassigned) [compound 58], for which the IC50 is 1380 nM in assay [1] and > 100000 nM in assay [2].
As to `CC(C)c1ccc([C@@H](NC(=O)C2CC2)c2ccccc2NC(=O)C2CC2)cc1` (single isomer, unassigned) [compound 61], the 50% inhibitory concentration (IC50) was 710 nM in assay [1] and > 100000 nM in assay [2].
Consider `CC(C)c1ccc([C@@H](NC(=O)C2CC2)c2ccccc2N)cc1` (single isomer, unassigned) [compound 64], for which the IC50 in assay [1] is 404 nM; in assay [2] it was > 100000 nM.
For `Cc1ccccc1[C@H](NC(=O)C1CC1)c1ccc(C(C)C)cc1` (single isomer, unassigned) [compound 65], the IC50 in assay [1] is 514 nM; in assay [2], > 100000 nM.
In the case of `Cc1cccc([C@H](NC(=O)C2CC2)c2ccc(C(C)C)cc2)c1` (single isomer, unassigned) [compound 66], the figures for the IC50 in assay [1] and in assay [2] were 2100 nM and > 100000 nM, respectively.
Regarding `CC(C)c1ccc([C@@H](NC(=O)C2CC2)c2ccnn2C)cc1` (single isomer, unassigned) [compound 69], the IC50 was 1820 nM in assay [1] and > 100000 nM in assay [2].
On the same counts, the results for `COc1ccccc1[C@H](NC(=O)C1CC1)c1ccc(C(C)C)cc1` (single isomer, unassigned) [compound 71] are 397 nM and > 100000 nM.
Turning to `CC(C)c1ccc([C@@H](NC(=O)C2CC2)c2ccccc2NC(=O)[C@@H]2CCN2)cc1` [compound 49, (S)-N-(2-((R)-cyclopropanecarboxamido(4-isopropylphenyl)methyl)phenyl)azetidine-2-carboxamide], the IC50 in assay [1] came out at 1790 nM.
As for `CC(C)c1ccc([C@@H](NC(=O)C2CC2)c2ccccc2NC(=O)[C@H]2CCN2)cc1` [compound 50, (R)-N-(2-((R)-cyclopropanecarboxamido(4-isopropylphenyl)methyl)phenyl)azetidine-2-carboxamide], the IC50 in assay [1] came out at 1790 nM.
For `CC(=O)N[C@H]1CCC[C@H]1C(=O)N[C@@H](c1ccccc1)c1ccc(C(C)C)cc1` [compound 55, (1R,2S)-2-acetamido-N-((S)-(4-isopropylphenyl)(phenyl)methyl)cyclopentane-1-carboxamide], the IC50 in assay [1] came out at 2420 nM.
